# Source: patent publication US20240294525A1, “COMPOUNDS AS GLP-1 RECEPTOR AGONISTS AND USES THEREOF” (CGENETECH (SUZHOU, CHINA) CO., LTD., priority 2021, published 2024)
# Columns and labels:
# [1] = Oral pharmacokinetics in mice; format: in vivo, C57 mice; settings: 10 mg/kg
# Description: Healthy male C57 mice (9 mice per compound, n=3), purchased from Shanghai Jihui Laboratory Animal Care Co., LTD, with an age of 6-8 weeks.
# The mice were fasted overnight before oral administration, and drunk freely, and feeding was resumed after 4 h of the administration. According to the weight of the mice weighed before the administration, the administration dose was calculated. It was intragastrically administered, and the administration dose was 10 mg/kg. At 0.083 h, 0.25 h, 0.5 h, 1 h, 2 h, 4 h, 8 h, and 24 h after the administration to test animals, about 110 μL of whole blood were respectively collected from submandibular veins of the mice by a semi-continuous method, and placed in a test tube containing K2EDTA. The tube was placed on ice, and centrifuged within 30 min (2000 g, 5 min, 4° C.), plasma was collected, transferred to an appropriately labeled test tube, and frozen at −80° C. in a refrigerator.
# A chromatographic column was Waters ACQUITY UPLC BEH C18 (2.1×50 mm, and 1.7 μm); mobile phase A: H2O-0.025% FA-1 mM NH4OAC, mobile phase B: ACN-0.025% FA-1 mM NH4OAC, flow rate: 0.60 mL/min, gradient elution program: start, 2% B, 0.2 min; 60% B, 0.7 min; 90% B, 1.50 min; 90% B, 2.0 min; 2% B, 2.01 min; 2.6 min, and stop; column temperature: 50° C.; and injection volume: 1 μL.
# Mass spectrometry method: LC-MS/MS-49 (Triple Quad 6500+)(SCIEX, USA), the ion source was an ESI source, the detection mode was positive ion detection, and the scanning mode was a multi-reaction monitoring (MRM) mode, m/z: 446.20/321.10 Da (Glipizide, internal standard).
# 10 μL of a plasma sample was taken and 200 μL of an internal standard working solution (Glipizide, 50 ng/mL) was added, vortex was performed for 1 min, then the mixture was centrifuged at 5800 rpm for 10 min. 70 μL of a supernatant was transferred to a 96-well plate, and 1 μL of the supernatant was taken and injected into LC-MS/MS for analysis.
# Pharmacokinetic (PK) parameters were calculated by using Phoenix WinNonlin 7.0; and the oral pharmacokinetic parameters of the mice, including AUC, Cmax, Tmax, T1/2 and the like, were estimated by using a non-compartmental model. […] PGP-46 T2
# GLP-1R = GLP-1R (Homo sapiens, UniProt P43220); assay: GLP-1R cAMP experiment (HTRF cAMP agonist detection); format: cell-based; settings: GLP-1R-HEK293 cells
# Description: The initial concentration was 500 nM, the compounds were diluted according to a 4-fold gradient in a total of 10 concentrations, and the diluent was dimethyl sulfoxide.
# • 1) 100 nL of each compound was transferred to a OptiPlate 384-well plate by using an Echo liquid transfer system; and • 2) the 384-well plate was centrifuged at 1000 rpm for 5 s.
# • 1) According to a conventional cell thawing method, a GLP-1R-HEK293 cell line was rapidly thawed in a 37° C. water bath; • 2) the cell suspension was transferred to a 15 mL centrifuge tube containing 10 mL of 1×HBSS solution; • 3) at room temperature, the tube was centrifuged at 1000 rpm for 5 min, to collect cells; 4) a supernatant was discarded carefully, and attention was paid to avoid sucking away the cells; • 5) the centrifuge tube was flicked gently, so that the cells were loosened, and 10 mL of 1×HBSS solution was added to resuspend the cells. The cells were blown and beaten up and down by using a sterile pipette, until the cells were blown and beaten to a single-cell state; • 6) the cells were counted by using a Vi-cell counter, to determine the cell concentration and determine the cell activity; • 7) GLP-1R-HEK293 cells were resuspended in a cAMP detection buffer solution (from the above cAMP detection kit), and the concentration was 2.0×10^5/mL; and 8) 10 μL of the GLP-1R-HEK293 cells was transferred into the OptiPlate 384-well plate. 2.4 HTRF cAMP Agonist Detection • 1) The 384-well plate was incubated at room temperature for 20 min, then a cAMP detection reagent (from the above cAMP detection kit) was added; • 2) an electric multi-channel pipette was used to add 10 μL of the cAMP detection reagent to each well; • 3) the 384-well plate was covered by using a TopSeal-A film, and incubated at room temperature for 60 min; and • 4) the TopSeal-A film was removed, and a signal on an Envision instrument was read.
# [2] = test system: patients with Type-2 diabetes mellitus; settings: first-phase clinical; cited from earlier work
# [3] = test system: hGLP-1R transgenic mouse B-hGLP-1R; assay: Mouse intraperitoneal glucose tolerance test (IPGTT); format: in vivo; settings: hGLP-1R mice, 10 mg/kg oral gavage
# Source text: Specific steps were as follows: • 1) After the arrival of experimental animals (hGLP-1R transgenic mouse B-hGLP-1R, SPF-grade mouse, male, 6-8 weeks, and purchased from Baiosaitu Jiangsu Gene Biotechnology Co., Ltd.), all experimental animals were divided into one animal per cage and fed and adapted for 7 days before the start of the experiment (during which the health status of the animals was observed). At least 3 days before the start of IPGTT, the animals were weighed and solvent (0.5% methylcellulose solution) intragastric administration and intraperitoneal saline injection were performed. • 2) On the day before the experiment, the experimental animals were fasted overnight (14 h, 19:00-9:00), and at 9:00 am, the experimental animals were weighed and blood was collected from tail tips to measure the blood glucose.
# Chain of GLP-1R (P43220 24-463): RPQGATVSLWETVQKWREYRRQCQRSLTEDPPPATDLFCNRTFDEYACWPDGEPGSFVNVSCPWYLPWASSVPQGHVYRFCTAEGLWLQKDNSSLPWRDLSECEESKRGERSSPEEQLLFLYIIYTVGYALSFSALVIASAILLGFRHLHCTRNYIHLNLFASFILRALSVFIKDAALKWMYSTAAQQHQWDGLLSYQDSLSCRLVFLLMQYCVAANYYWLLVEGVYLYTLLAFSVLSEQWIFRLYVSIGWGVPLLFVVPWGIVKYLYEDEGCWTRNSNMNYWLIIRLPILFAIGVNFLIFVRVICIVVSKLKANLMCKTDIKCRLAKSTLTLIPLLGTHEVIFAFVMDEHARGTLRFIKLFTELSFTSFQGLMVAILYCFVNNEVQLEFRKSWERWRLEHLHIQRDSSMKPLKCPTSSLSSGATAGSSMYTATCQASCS
Structure (SMILES),"AUC(0-inf) ([1]; male, C57, mouse, in vivo, po)","AUC(0-t) ([1]; male, C57, mouse, in vivo, po)","Cmax ([1]; male, C57, mouse, in vivo, po)","MRT inf ([1]; male, C57, mouse, in vivo, po)","MRT last ([1]; male, C57, mouse, in vivo, po)","Tmax ([1]; male, C57, mouse, in vivo, po)","half-life ([1]; male, C57, mouse, in vivo, po)",EC50 (GLP-1R),further results
C#Cc1ccc(COc2cccc(N3CCN(Cc4nc5ccc(C(=O)O)cc5n4C[C@@H]4CCO4)CC3)n2)c(Cl)c1 [Compound 8],10900 ng·h/mL,10900 ng·h/mL,4370 ng/mL,2.5 h,2.5 h,60 min,138 min,0.1 nM,
"N#Cc1ccc(COc2cccc(C3CCN(Cc4nc5ccc(C(=O)O)cc5n4C[C@@H]4CCO4)CC3)n2)c(F)c1 [PF-06882961, reference compound]",,,,,,,,,"AUC(0-t) ([1]; male C57 mice, intragastric): 3427.0 ng·h/mL; AUC(0-∞) ([1]; male C57 mice, intragastric): 3444.0 ng·h/mL; Cmax ([1]; male C57 mice, intragastric): 4967.0 ng/mL; MRT(0-t) ([1]; male C57 mice, intragastric): 48 min; MRT(0-∞) ([1]; male C57 mice, intragastric): 48 min; T1/2 ([1]; male C57 mice, intragastric): 1.4 h; Tmax ([1]; male C57 mice, intragastric): 15 min; effects on blood glucose and weight [2]: significant effects on reducing blood glucose and weight"
C#Cc1ccc(COc2cccc(C3CCN(Cc4nc5c(F)cc(C(=O)O)cc5n4C[C@@H]4CCO4)CC3)n2)c(F)c1 [Compound 11],2280 ng·h/mL,2270 ng·h/mL,2030 ng/mL,1.9 h,1.8 h,30 min,234 min,0.14 nM,
C#Cc1ccc(COc2nc(N3CCN(Cc4nc5ccc(C(=O)O)cc5n4C[C@@H]4CCO4)CC3)ccc2F)c(F)c1 [Compound 10],9800 ng·h/mL,9780 ng·h/mL,4350 ng/mL,2.6 h,2.5 h,30 min,162 min,0.1 nM,
C#Cc1ccc(COc2nc(N3CCN(Cc4nc5ccc(C(=O)O)cc5n4C[C@@H]4CCO4)CC3)ccc2F)cc1 [Compound 15],,,,,,,,0.85 nM,
C#Cc1ccc(COc2nc(C3CCN(Cc4nc5ccc(C(=O)O)nc5n4C[C@@H]4CCO4)CC3)ccc2F)c(F)c1 [Compound 20],,,,,,,,0.59 nM,
C#Cc1ccc(COc2cccc(N3CCN(Cc4nc5ccc(C(=O)O)cc5n4C[C@@H]4CCO4)CC3)n2)cc1 [Compound 7],12500 ng·h/mL,12500 ng·h/mL,6170 ng/mL,2 h,2 h,30 min,186 min,0.39 nM,
C#Cc1ccc(COc2cccc(C3CCN(Cc4nc5ccc(C(=O)O)cc5n4C[C@@H]4CCO4)CC3)n2)c(F)c1 [Compound 1],3560 ng·h/mL,3310 ng·h/mL,1700 ng/mL,1.8 h,1.5 h,30 min,132 min,0.82 nM,
O=C(O)c1ccc2nc(CN3CCN(c4cccc(OCc5ccc(C#CCO)cc5F)n4)CC3)n(C[C@@H]3CCO3)c2c1 [Compound 5],,,,,,,,5.2 nM,

# Continued by falling EC50 (GLP-1R), values first:
"AUC(0-inf) ([1]; male, C57, mouse, in vivo, po)","AUC(0-t) ([1]; male, C57, mouse, in vivo, po)","Cmax ([1]; male, C57, mouse, in vivo, po)","MRT inf ([1]; male, C57, mouse, in vivo, po)","MRT last ([1]; male, C57, mouse, in vivo, po)","Tmax ([1]; male, C57, mouse, in vivo, po)","half-life ([1]; male, C57, mouse, in vivo, po)",EC50 (GLP-1R),Structure (SMILES),further results
,,,,,,,1.75 nM,O=C(O)c1ccc2nc(CN3CCN(c4cccc(OCc5ccc(C#CC6CC6)cc5F)n4)CC3)n(C[C@@H]3CCO3)c2c1 [Compound 4],
,,,,,,,1.07 nM,C#Cc1ccc(COc2nc(N3CCN(Cc4nc5ccc(C(=O)O)nc5n4C[C@@H]4CCO4)CC3)ccc2F)cc1 [Compound 16],
7010 ng·h/mL,6930 ng·h/mL,3170 ng/mL,3 h,2.8 h,30 min,156 min,0.96 nM,C#Cc1ccc(COc2cccc(N3CCN(Cc4nc5ccc(C(=O)O)cc5n4C[C@@H]4CCO4)CC3)n2)c(F)c1 [Compound 2],blood glucose reducing effect ([3]; 2 g/kg glucose i.p.): significant blood glucose reducing effect; overall blood glucose-reducing effect compared with PF-06882961 ([3]; IPGTT): better than PF-06882961
,,,,,,,0.8 nM,CC#Cc1ccc(COc2cccc(N3CCN(Cc4nc5ccc(C(=O)O)cc5n4C[C@@H]4CCO4)CC3)n2)c(F)c1 [Compound 3],
5140 ng·h/mL,5130 ng·h/mL,2830 ng/mL,1.9 h,1.9 h,15 min,180 min,0.56 nM,C#Cc1ccc(COc2nc(N3CCN(Cc4nc5ccc(C(=O)O)nc5n4C[C@@H]4CCO4)CC3)ccc2F)c(F)c1 [Compound 17],
10300 ng·h/mL,10300 ng·h/mL,3300 ng/mL,2.7 h,2.7 h,30 min,144 min,0.51 nM,C#Cc1ccc(COc2nc(N3CCN(Cc4nc5ccc(C(=O)O)cc5n4C[C@@H]4CCO4)CC3)ccc2F)c(Cl)c1 [Compound 19],
,,,,,,,0.41 nM,C#Cc1ccc(COc2cccc(N3CCN(Cc4nc5c(F)cc(C(=O)O)cc5n4C[C@@H]4CCO4)CC3)n2)c(Cl)c1 [Compound 12],
4140 ng·h/mL,4130 ng·h/mL,1470 ng/mL,3.1 h,3.1 h,30 min,156 min,0.37 nM,C#Cc1ccc(COc2nc(N3CCN(Cc4nc5ccc(C(=O)O)nc5n4C[C@@H]4CCO4)CC3)ccc2F)c(Cl)c1 [Compound 18],
3920 ng·h/mL,3880 ng·h/mL,2620 ng/mL,1.4 h,1.3 h,30 min,84 min,0.15 nM,C#Cc1ccc(COc2cccc(N3CCN(Cc4nc5ccc(C(=O)O)nc5n4C[C@@H]4CCO4)CC3)n2)c(F)c1 [Compound 9],
